Source: ChEMBL document CHEMBL3739370, “Synthesis and evaluation of amide, sulfonamide and urea benzisoxazole derivatives as potential atypical antipsychotics” (Medchemcomm, 2015)

Experiments:
[1] = biological target: T1, 5-hydroxytryptamine receptor 1A (Rattus norvegicus, UniProt P19327); experiment: Displacement of [3H]8-OH-DPAT from 5HT1A receptor in rat brain cortex; assay type: tissue-based
T1 sequence (P19327 whole entry): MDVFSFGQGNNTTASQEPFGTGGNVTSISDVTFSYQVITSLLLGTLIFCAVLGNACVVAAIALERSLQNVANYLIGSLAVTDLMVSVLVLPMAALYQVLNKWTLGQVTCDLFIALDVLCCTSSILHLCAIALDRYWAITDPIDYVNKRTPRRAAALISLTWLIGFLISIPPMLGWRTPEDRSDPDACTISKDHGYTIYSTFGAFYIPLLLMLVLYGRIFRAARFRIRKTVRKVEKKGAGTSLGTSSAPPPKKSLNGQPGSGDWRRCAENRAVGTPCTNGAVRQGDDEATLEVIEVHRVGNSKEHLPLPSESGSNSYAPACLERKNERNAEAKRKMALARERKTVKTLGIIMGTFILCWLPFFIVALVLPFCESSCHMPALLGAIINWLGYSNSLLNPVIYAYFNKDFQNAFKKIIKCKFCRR

[2] = biological target: 5-hydroxytryptamine receptor 2A (Rattus norvegicus, UniProt P14842); experiment: Displacement of [3H]ketanserin from 5HT2A receptor in rat brain cortex; assay type: tissue-based
D(2) dopamine receptor = D(2) dopamine receptor (Rattus norvegicus, UniProt P61169); experiment: Displacement of [3H]spiperone from dopamine D2 receptor in rat striatum
Mus musculus [3] = experiment: Antipsychotic activity in po dosed mouse assessed as reversal of DOI-induced head twitch activity; assay type: functional
Mus musculus [4] = experiment: Antipsychotic activity in po dosed mouse assessed as reversal of apomorphine-induced climbing activity; assay type: functional
Mus musculus [5] = experiment: Toxicity in po dosed mouse assessed as catalepsy; assay type: organism-based; conditions: in vivo
Mus musculus [6] = experiment: Antipsychotic activity in po dosed mouse assessed as reversal of MK-801-induced hyperactivity; assay type: functional
Mus musculus [7] = experiment: Selectivity ratio of ED50 for po dosed mouse assessed as catalepsy to ED50 for po dosed mouse assessed as reversal of MK-801-induced hyperactivity
Mus musculus [8] = experiment: Selectivity ratio of ED50 for po dosed mouse assessed as catalepsy to ED50 for po dosed mouse assessed as reversal of apomorphine-induced climbing activity

Sequence of 5-hydroxytryptamine receptor 2A (P14842 whole entry): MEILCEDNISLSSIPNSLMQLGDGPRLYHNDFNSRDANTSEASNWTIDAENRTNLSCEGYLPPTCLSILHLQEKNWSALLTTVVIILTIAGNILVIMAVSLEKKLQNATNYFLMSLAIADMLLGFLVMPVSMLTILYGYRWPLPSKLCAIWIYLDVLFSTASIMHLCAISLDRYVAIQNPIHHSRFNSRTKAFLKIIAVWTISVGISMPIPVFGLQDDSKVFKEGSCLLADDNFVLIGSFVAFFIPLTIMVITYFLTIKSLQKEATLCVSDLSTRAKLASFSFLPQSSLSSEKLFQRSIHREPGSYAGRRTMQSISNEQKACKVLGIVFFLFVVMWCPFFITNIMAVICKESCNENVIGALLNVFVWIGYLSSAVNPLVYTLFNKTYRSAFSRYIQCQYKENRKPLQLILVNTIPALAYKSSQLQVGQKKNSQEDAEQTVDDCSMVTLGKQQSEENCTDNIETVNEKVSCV
Sequence of D(2) dopamine receptor (P61169 whole entry): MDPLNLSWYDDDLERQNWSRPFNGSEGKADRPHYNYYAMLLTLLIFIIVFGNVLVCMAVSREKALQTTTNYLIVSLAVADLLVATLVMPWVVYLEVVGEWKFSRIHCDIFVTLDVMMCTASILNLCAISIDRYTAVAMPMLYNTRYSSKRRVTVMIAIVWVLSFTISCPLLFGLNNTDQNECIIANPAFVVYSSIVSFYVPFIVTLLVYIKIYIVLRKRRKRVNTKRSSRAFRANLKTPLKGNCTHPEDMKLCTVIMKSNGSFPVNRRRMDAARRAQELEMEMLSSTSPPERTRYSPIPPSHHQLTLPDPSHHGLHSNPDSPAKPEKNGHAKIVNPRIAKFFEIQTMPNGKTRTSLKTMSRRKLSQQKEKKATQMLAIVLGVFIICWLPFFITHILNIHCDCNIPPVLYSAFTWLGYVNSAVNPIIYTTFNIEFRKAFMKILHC

Ki [1] [nM] | Ki [2] [nM] | Ki (D(2) dopamine receptor) [nM] | SMILES | also measured
1200 | 32.6 | 1380 | O=S(=O)(c1ccc2ccccc2c1)N1CCC(CN2CCC(c3noc4cc(F)ccc34)CC2)CC1 | 
 |  |  | Cc1nc2n(c(=O)c1CCN1CCC(c3noc4cc(F)ccc34)CC1)CCCC2 [RISPERIDONE] | ED50 (Mus musculus [3]): 0.038 mg/kg; ED50 (Mus musculus [4]): 0.012 mg/kg; ED50 (Mus musculus [5]): 0.38 mg/kg; ED50 (Mus musculus [6]): 0.013 mg/kg
 |  |  | CN1CCN(C2=Nc3cc(Cl)ccc3Nc3ccccc32)CC1 [CLOZAPINE] | ED50 (Mus musculus [4]): 4.52 mg/kg; ED50 (Mus musculus [5]): 55.89 mg/kg; ED50 (Mus musculus [6]): 2.11 mg/kg
269 | 71.8 | 195 | O=C(c1ccc([N+](=O)[O-])cc1)N1CCC(CN2CCC(c3noc4cc(F)ccc34)CC2)CC1 | 
1010 | 26.9 | 590 | O=[N+]([O-])c1ccccc1S(=O)(=O)N1CCC(CN2CCC(c3noc4cc(F)ccc34)CC2)CC1 | 
> 10000 | 265 | 1270 | O=C(NCc1ccccc1)N1CCC(CN2CCC(c3noc4cc(F)ccc34)CC2)CC1 | 
> 10000 | 1100 | > 10000 | CCN(C)C(=O)N1CCC(CN2CCC(c3noc4cc(F)ccc34)CC2)CC1 | 
> 10000 | 569 | > 10000 | CN(C)C(=O)N1CCC(CN2CCC(c3noc4cc(F)ccc34)CC2)CC1 | 
> 10000 | 1520 | 1290 | Cc1ccc(S(=O)(=O)N2CCC(CN3CCC(c4noc5cc(F)ccc45)CC3)CC2)cc1 | 
990 | 30.1 | 1100 | O=[N+]([O-])c1ccc(S(=O)(=O)N2CCCC(CN3CCC(c4noc5cc(F)ccc45)CC3)C2)cc1 (stereo not drawn) | 
165 | 455 | 1290 | O=S(=O)(c1cccs1)N1CCC(CN2CCC(c3noc4cc(F)ccc34)CC2)CC1 | 
789 | 368 | 211 | O=S(=O)(c1ccc(F)cc1)N1CCC(CN2CCC(c3noc4cc(F)ccc34)CC2)CC1 | 
917 | 135 | 759 | O=[N+]([O-])c1cccc(S(=O)(=O)N2CCC(CN3CCC(c4noc5cc(F)ccc45)CC3)CC2)c1 | 
157 | 19 | 86.8 | O=C(c1ccc(F)cc1)N1CCC(CN2CCC(c3noc4cc(F)ccc34)CC2)CC1 | 
1370 | 66.8 | > 10000 | O=[N+]([O-])c1ccc(S(=O)(=O)N2CCC(CCN3CCC(c4noc5cc(F)ccc45)CC3)CC2)cc1 | 
> 10000 | 310 | > 10000 | CC(C)(C)C(=O)N1CCC(CN2CCC(c3noc4cc(F)ccc34)CC2)CC1 | 
599 | 114 | 1270 | O=C(c1ccccc1)N1CCC(CN2CCC(c3noc4cc(F)ccc34)CC2)CC1 | 
 |  |  | O=C(CCCN1CCC(O)(c2ccc(Cl)cc2)CC1)c1ccc(F)cc1 [HALOPERIDOL] | ED50 (Mus musculus [4]): 0.17 mg/kg; ED50 (Mus musculus [5]): 0.47 mg/kg; Ratio ED50 (Mus musculus [7]): 3.4; ED50 (Mus musculus [6]): 0.14 mg/kg; Ratio ED50 (Mus musculus [8]): 2.8
2500 | 121 | 1190 | COc1ccc(C(=O)N2CCC(CN3CCC(c4noc5cc(F)ccc45)CC3)CC2)cc1 | 
> 10000 | 216 | > 10000 | O=C(C1CC1)N1CCC(CN2CCC(c3noc4cc(F)ccc34)CC2)CC1 | 
299 | 6.8 | 85.6 | O=C(Nc1ccc(Cl)cc1)N1CCC(CN2CCC(c3noc4cc(F)ccc34)CC2)CC1 | 
479 | 113 | 190 | N#Cc1ccc(S(=O)(=O)N2CCC(CN3CCC(c4noc5cc(F)ccc45)CC3)CC2)cc1 | 
276 | 26.9 | 178 | Cc1ccc(NC(=O)N2CCC(CN3CCC(c4noc5cc(F)ccc45)CC3)CC2)cc1 | 
> 10000 | 2110 | > 10000 | O=C(/C=C/c1ccccc1)N1CCC(CN2CCC(c3noc4cc(F)ccc34)CC2)CC1 | 

SMILES | Ki [1] [nM] | Ki [2] [nM] | Ki (D(2) dopamine receptor) [nM] | also measured
O=S(=O)(c1ccccc1)N1CCC(CN2CCC(c3noc4cc(F)ccc34)CC2)CC1 | > 10000 | > 10000 | 2500 | 
